Earlier results in patent publication US10286065B2 (priority 2014, dated 2019).

For `CCC(=O)O[C@]1(C(=O)SCF)[C@H](C)C[C@H]2[C@@H]3C[C@H](F)C4=CC(=O)C=C[C@]4(C)[C@@]3(F)[C@@H](O)C[C@@]21C` [Fluticasone propionate], the “solubility in dimethyl sulfoxide and dimethylformamide” value (dimethyl sulfoxide and dimethylformamide) is listed as “freely soluble”, the “solubility in methanol and 95% ethanol” value (methanol and 95% ethanol) is listed as “slightly soluble” and the solubility in water (water) is listed as “practically insoluble”.
